Counter-ions that a name gives are not always drawn.
Target: human recombinant ATX (Homo sapiens (Human), UniProt Q13822)
Test: Autotaxin (ATX) activity Quanta Red assay
Format: biochemical
Settings: 15 μM Rac-1-Palmitoyl-glycero-3-phosphocholine, 2 hours room temperature, determined in duplicate
Description: The ATX enzyme assay (Quanta Red assay) described in accompanying Example section may be used to measure the pharmacological effects of the compounds of the present invention.
Autotaxin (ATX) Activity Quanta Red Assay
Measuring ATX activity using an enzyme coupled Quanta Red assay (Thermo Scientific—Pierce Protein Research Products, Product #15159) was determined as follows. 8 μL human recombinant ATX (final concentration 0.8 μg/mL) in 1× Assay buffer containing 50 mM Tris-HCl (pH 8.0), 5 mM CaCl2 was added to an opaque black flat-bottom 384-well plate (Corning, #3575) containing 2 μL test compound in 40% DMSO (4% final DMSO concentration). 10 μL of Quanta Red, Horseradish peroxidase (HRP), Choline Oxidase (CO), Rac-1-Palmitoyl-glycero-3-phosphocholine solution (final concentration 1:250 for Quanta Red, 0.5units/ml HRP, 0.5units/ml CO, 15 μM Rac-1-Palmitoyl-glycero-3-phosphocholine) in 1× assay buffer (as described previously) was added to each well to start the reaction and the plate was incubated at room temperature for 2 hours. The reaction was stopped after 2 hours with a 20 μL addition of Quanta Red Stop solution (1:20 dilution in distilled water). The above-described mixture with DMSO alone was used as a positive control whereas that with DMSO alone without ATX was taken as a negative control.
For each test compound, ten concentrations were measured covering a range of 6.1 nM to 120 μM to determine IC50 values. The top concentration was decreased to 1.2 μM when a test compound's IC50 value was evaluated in low nanomolar range. Fluorescence was determined in a BMG Labtech Pherastar plus plate reader ([…]). Data were analysed using Excel fit software. IC50 values were determined in duplicate.

Row | SMILES | IC50 [nM]
1 | CC1CN(Cc2ccc(N3CC(C(=O)Nc4nnc(CCc5ccc(Cl)cc5)s4)CC3=O)cc2)C[C@H](C)O1 (stereo in doubt) [Compound F125, N-[5-[2-(4-chlorophenyl)ethyl]-1,3,4-thiadiazol-2-yl]-1-[4-[[(2S,6S)-2,6-dimethylmorpholin-4-yl]methyl]phenyl]-5-oxo-pyrrolidine-3-carboxamide] | 8
2 | O=C(Nc1cc(CCc2ccc(Cl)cc2)on1)C1CC(=O)N(c2ccc(CN3CCCCC3)cc2)C1 (stereo in doubt) [Compound F146, (3S)-N-[5-[2-(4-chlorophenyyl)ethyl]isoxazol-3-yl]-5-oxo-1-[4-(1-piperidylmethyl)phenyl] pyrrolidine-3-carboxamide] | 1
3 | O=C(Nc1nnc(CCc2ccc(F)cc2)s1)[C@H]1CC(=O)N(c2ccc(CN3CCOCC3)cc2)C1 (stereo in doubt) [Compound F215, 1-(4-Morpholin-4-ylmethyl-phenyl)-5-oxo-pyrrolidine-3-carboxylic acid {5-[2-(4-fluoro-phenyl)-ethyl]-[1,3,4]thiadiazol-2-yl}-amide; hydrochloride] | 3
4 | CN(Cc1ccc(N2C[C@@H](C(=O)Nc3nnc(CCc4ccc(Cl)cc4)s3)CC2=O)cc1)C1CCOC1 (stereo partly drawn) [Compound F87, (3S)-N-[5-[2-(4-chlorophenyl)ethyl]-1,3,4-thiadiazol-2-yl]-1-[4-[[methyl(tetrahydrofuran-3-yl)amino]methyl]phenyl]-5-oxo-pyrrolidine-3-carboxamide] | 1
5 | CN(Cc1ccc(N2C[C@@H](C(=O)Nc3nnc(CCc4ccc(Cl)cc4)s3)CC2=O)cc1)C1COC1 [Compound F88, (3S)-N-[5-[2-(4-chlorophenyl)ethyl]-1,3,4-thiadiazol-2-yl]-1-[4-[[methyl(oxetan-3-yl)amino]methyl]phenyl]-5-oxo-pyrrolidine-3-carboxamide] | 1
6 | O=C(Nc1nnc(CCc2ccc(Cl)cc2)s1)[C@H]1CC(=O)N(c2ccc(CN3CCOCC3)cc2)C1 [Compound F89, (3S)-N-[5-[2-(4-chlorophenyl)ethyl]-1,3,4-thiadiazol-2-yl]-1-[4-(morpholino-methyl)phenyl]-5-oxo-pyrrolidine-3-carboxamide] | 1
7 | CN(Cc1ccc(N2C[C@@H](C(=O)Nc3nnc(CCc4ccc(Cl)cc4)s3)CC2=O)cc1)C1CCOCC1 [Compound F90, (3S)-N-[5-[2-(4-chlorophenyl)ethyl]-1,3,4-thiadiazol-2-yl]-1-[4-[[methyl(tetrahydropyran-4-yl)amino]methyl]phenyl]-5-oxo-pyrrolidine-3-carboxamide] | 1
8 | COCCN(C)Cc1ccc(N2C[C@@H](C(=O)Nc3nnc(CCc4ccc(Cl)cc4)s3)CC2=O)cc1 [Compound F94, (3S)-N-[5-[2-(4-chlorophenyl)ethyl]-1,3,4-thiadiazol-2-yl]-1-[4-[[2-methoxyethyl(methyl)amino]methyl]phenyl]-5-oxo-pyrrolidine-3-carboxamide] | 1
9 | O=C(Nc1nnc(CCc2ccc(C(F)(F)F)cc2)s1)[C@H]1CC(=O)N(c2ccc(CN3CCOCC3)cc2)C1 [Compound F97, (3S)-1-[4-(morpholinomethyl)phenyl]-5-oxo-N-[5-[2-[4-(trifluoromethyl)phenyl]ethyl]-1,3,4-thiadiazol-2-yl]pyrrolidine-3-carboxamide] | 2
10 | CCN(CC)Cc1ccc(N2CC(C(=O)Nc3nnc(CCc4ccc(Cl)cc4)s3)CC2=O)cc1 (stereo not shown) [Compound F98, N-[5-[2-(4-chlorophenyl)ethyl]-1,3,4-thiadiazol-2-yl]-1-[4-(diethylaminomethyl)phenyl]-5-oxo-pyrrolidine-3-carboxamide] | 2
11 | COCCN(C)Cc1ccc(N2CC(C(=O)Nc3nnc(CCc4ccc(Cl)cc4)s3)CC2=O)cc1 (stereo not shown) [Compound F100, N-[5-[2-(4-chlorophenyl)ethyl]-1,3,4-thiadiazol-2-yl]-1-[4-[[2-methoxyethyl(methyl)amino]methyl]phenyl]-5-oxo-pyrrolidine-3-carboxamide] | 2
12 | O=C(Nc1nnc(CCc2ccc(Cl)cc2)s1)C1CC(=O)N(c2ccc(CN3CCCOCC3)cc2)C1 (stereo not shown) [Compound F101, N-[5-[2-(4-chlorophenyl)ethyl]-1,3,4-thiadiazol-2-yl]-1-[4-(1,4-oxazepan-4-ylmethyl)phenyl]-5-oxo-pyrrolidine-3-carboxamide] | 3
13 | O=C(Nc1nnc(CCc2ccc(Cl)cc2)s1)[C@H]1CC(=O)N(c2ccc(CN3CC4CC4C3)cc2)C1 (stereo partly drawn) [Compound F103, (3S)-1-[4-(3-azabicyclo[3.1.0]hexan-3-ylmethyl)phenyl]-N-[5-[2-(4-chlorophenyl)ethyl]-1,3,4-thiadiazol-2-yl]-5-oxo-pyrrolidine-3-carboxamide] | 3
14 | O=C(Nc1nnc(CCc2ccc(Cl)cc2)s1)C1CC(=O)N(c2ccc(CNC3CCOCC3)cc2)C1 (stereo not shown) [Compound F105, 5-oxo-1-{4-[(tetrahydro-pyran-4-ylamino)-methyl]-phenyl}-pyrrolidine-3-carboxylic acid {5-[2-(4-chloro-phenyl)-ethyl]-[1,3,4]thiadiazol-2-yl}-amide; hydrochloride] | 3
15 | O=C(Nc1nnc(CCc2ccc(F)cc2)s1)[C@H]1CC(=O)N(c2ccc(CN3CCOCC3)cc2)C1 [Compound F108, (3S)-N-[5-[2-(4-fluorophenyl)ethyl]-1,3,4-thiadiazol-2-yl]-1-[4-(morpholinomethyl)phenyl]-5-oxo-pyrrolidine-3-carboxamide] | 3
16 | O=C(Nc1nnc(CCc2ccc(Cl)cc2)s1)C1CC(=O)N(c2ccc(CN3CC4CC4C3)cc2)C1 (stereo not shown) [Compound F110, 1-[4-(3-azabicyclo[3.1.0]hexan-3-ylmethyl)phenyl]-N-[5-[2-(4-chlorophenyl)ethyl]-1,3,4-thiadiazol-2-yl]-5-oxo-pyrrolidine-3-carboxamide] | 3

More lines, now with the values ahead:

Row | IC50 [nM] | SMILES
17 | 1 | O=C(Nc1nnc(CCc2ccc(Cl)cc2)s1)[C@H]1CC(=O)N(c2ccc(CN3CCCCCC3)cc2)C1 [Compound F91, (3S)-1-[4-(azepan-1-ylmethyl)phenyl]-N-[5-[2-(4-chlorophenyl)ethyl]-1,3,4-thiadiazol-2-yl]-5-oxo-pyrrolidine-3-carboxamide]
18 | 1 | CC1CCN(Cc2ccc(N3C[C@@H](C(=O)Nc4nnc(CCc5ccc(Cl)cc5)s4)CC3=O)cc2)CC1 [Compound F92, (S)-1-[4-(4-methyl-piperidin-1-ylmethyl)-phenyl]-5-oxo-pyrrolidine-3-carboxylic acid {5-[2-(4-chloro-phenyl)-ethyl]-[1,3,4]thiadiazol-2-yl}-amide]
19 | 1 | O=C(Nc1nnc(CCc2ccc(Cl)cc2)s1)[C@H]1CC(=O)N(c2ccc(CN3CCCCC3)cc2)C1 [Compound F93, (3S)-N-[5-[2-(4-chlorophenyl)ethyl]-1,3,4-thiadiazol-2-yl]-5-oxo-1-[4-(1-piperidylmethyl)phenyl] pyrrolidine-3-carboxamide]
20 | 2 | CC1CCN(Cc2ccc(N3CC(C(=O)Nc4nnc(CCc5ccc(Cl)cc5)s4)CC3=O)cc2)CC1 (stereo not shown) [Compound F95, 1-[4-(4-methyl-piperidin-1-ylmethyl)-phenyl]-5-oxo-pyrrolidine-3-carboxylic acid {5-[2-(4-chloro-phenyl)-ethyl]-[1,3,4]thiadiazol-2-yl}-amide]
21 | 2 | O=C(Nc1nnc(CCC2CCCCC2)s1)C1CC(=O)N(c2ccc(CN3CCCOCC3)cc2)C1 (stereo not shown) [Compound F96, N-[5-(2-cyclohexylethyl)-1,3,4-thiadiazol-2-yl]-1-[4-(1,4-oxazepan-4-ylmethyl)phenyl]-5-oxo-pyrrolidine-3-carboxamide]
22 | 2 | O=C(Nc1nnc(CCc2ccc(Cl)cc2)s1)C1CC(=O)N(c2ccc(CN3CCCCC3)cc2)C1 (stereo not shown) [Compound F99, N-[5-[2-(4-chlorophenyl)ethyl]-1,3,4-thiadiazol-2-yl]-5-oxo-1-[4-(1-piperidylmethyl)phenyl] pyrrolidine-3-carboxamide]
23 | 3 | O=C(Nc1nnc(CCc2ccc(Cl)cc2)s1)C1CC(=O)N(c2ccc(CN3CCC(O)CC3)cc2)C1 (stereo not shown) [Compound F102, N-[5-[2-(4-chlorophenyl)ethyl]-1,3,4-thiadiazol-2-yl]-1-[4-[(4-hydroxy-1-piperidyl)methyl]phenyl]-5-oxo-pyrrolidine-3-carboxamide]
24 | 3 | O=C(Nc1nnc(CCc2ccc(Cl)cc2)s1)[C@H]1CC(=O)N(c2ccc(CN3CCCOCC3)cc2)C1 [Compound F104, (3S)-N-[5-[2-(4-chlorophenyl)ethyl]-1,3,4-thiadiazol-2-yl]-1-[4-(1,4-oxazepan-4-ylmethyl)phenyl]-5-oxo-pyrrolidine-3-carboxamide]
25 | 3 | O=C(Nc1nnc(CCC2CCCCC2)s1)C1CC(=O)N(c2ccc(CN3CCCCC3)cc2)C1 (stereo not shown) [Compound F106, N-[5-(2-cyclohexylethyl)-1,3,4-thiadiazol-2-yl]-5-oxo-1-[4-(1-piperidylmethyl)phenyl] pyrrolidine-3-carboxamide]

— US10138230B2, “Autotaxin inhibitors” (CANCER RESEARCH TECHNOLOGY LIMITED, priority 2015, dated 2018)
